Data published in article PMC10449633 (Nature Chemical Biology, 2023).
Several values for one entry are separate records, joined by “and”; a condition that tells them apart may be missing. Equal entries are not always repeated. Where two headings read alike, the source gives them in different places. Numbered stars: 1 amine (or outer) side, 2 acyl side, 3 side chain; on linkers, the order of the positions; unused ones are H or OH. Square brackets hold non-standard residues; d marks the D form. Peptide text beside a SMILES is read from it. ξ: configuration not given here. X1 = CN(C(Cc1cn(Cc2ccc(Br)cc2)c2ccccc12)C(=O)[*:2])[*:1]; ξAla(CF3) = NC(CC(F)(F)F)C(=O)O; X2 = N#CCCC(O[*:1])C(=O)[*:2]; NMeL = CN[CH](CC(C)C)C(=O)O; NMeA = CN[CH](C)C(=O)O

Experiments:
Sec61 = biological target: T1, Sec61 (Homo sapiens, UniProt P61619); assay: cell-based; type: cell-based; settings: for remaining activity at 0.000660151 µM: Drug nM (log10) 0.660151; for remaining activity at 0.00050805 µM: Drug nM (log10) -0.29409
T1 construct: endogenous in cells

[1] = system: T-cell acute lymphoblastic leukemia cells; settings: in vitro; cited from earlier work
[2] = system: Sec61 R66I TNFa(FL) reporter cells; assay: CTG (CellTiter-Glo) viability of TNFa(FL) reporter cells expressing Sec61 R66I; type: cell-based; settings: replicate columns
From the text: Supplement 41589_2023_1326_MOESM7_ESM.xlsx, sheet "Panel B" | column: Sec61 R66I - CTG (TNFa(FL))

Wild Type Sec61α = Wild Type Sec61α (Canis lupus familiaris, UniProt P38377); assay: Luciferase reporter assay in HEK293 Flp-In T-REx cells expressing Wild Type Sec61α; parameters: remaining activity: dose or concentration left out as unconfirmed; settings: HEK293, 24 h, read-out: luciferase reporter activity (% of no-drug control), Wild Type
Description: (§1) Data are mean values ± s.d. from n = 2 independent experiments.
(§2) HEK293T cells (0.3 × 10^6) were seeded per well of a six-well plate and incubated at 37 °C in 5% CO2 for 24 h to adhere. Each of the two wells was transfected with 1 µg of plasmid encoding a luciferase with the signal peptide of either VCAM1 or pPL using PEI in a 5:1 ratio, after which cells were returned to the incubator for a further 24 h. Transfected cells were then resuspended following trypsinization, cell count estimated using a TC20 Automated Cell Counter (BioRad) and diluted to seed a 96-well flat-bottom plate with 1.6 × 10^4 cells per well. […] Cells were then incubated for a further 24 h, after which the luciferase-containing media were transferred to a clean 96-well plate and stored at −20 °C. Luciferase activity of the media was estimated using a Gaussia-GLOW Juice Luciferase Assay kit from PJK Biotech GmbH as per the manufacturer’s instructions. Luminescence was measured using an EnSpire Multimode plate reader (PerkinElmer). Background luminescence from media placed in a well with neither cells nor drug was subtracted from all values, and measurements were calculated as a percentage of luminescence intensity of a well expressing the appropriate luciferase construct in the absence of any drug. Curves were fitted, and IC50 values were calculated using GraphPad Prism 8.
HEK293 Flp-In T-REx cells (Thermo Fisher Scientific, R78007) were cultured in Dulbecco’s modified Eagle’s medium (Gibco) supplemented with 10% FBS (Gibco) at 37 °C in a humidified 5% CO2 atmosphere. Approximately 0.3 µg of pOG44 and 1 µg of targeting construct plasmids were mixed in 250 µl of OptiMEM (Thermo Fisher Scientific, 51985-026). A total of 3 µl (3 µg) Lipofectamine3000 transfection reagent was then added to the DNA mix and incubated at room temperature for 20 min, and the whole mixture was added to the cells. Cells were exposed to 100 µg ml^−^1 hygromycin B (Invitrogen) and 10 µg ml^−^1 blasticidin for 3–4 weeks until the appearance of resistant colonies. Colonies were expanded into T75 flasks and induced with doxycycline (Sigma-Aldrich, D9891) at a concentration of 1–5 µg ml^−^1 for 48 h. Cells were collected, and total RNA was extracted followed by cDNA amplification and sequencing of Sec61 with gene-specific PCR primers to confirm. Cells were then used for the luciferase reporter assays as above.
(§3) Data are mean values ± SD and are representative of n = 2 independent experiments.

[3] = system: Sec61 WT TNFa(FL) reporter cells; assay: CTG (CellTiter-Glo) viability of TNFa(FL) reporter cells expressing Sec61 WT; type: cell-based; settings: replicate columns
From the text: Supplement 41589_2023_1326_MOESM7_ESM.xlsx, sheet "Panel B" | column: Sec61 WT - CTG (TNFa(FL))

Sec61α N300A = Sec61α N300A (Canis lupus familiaris, UniProt P38377, N300A); assay: Luciferase reporter assay in HEK293 cells expressing Sec61α N300A; parameters: remaining activity: dose or concentration left out as unconfirmed
Description: as §1, §2
WT canine Sec61 was cloned into pcDNA5/FRT/TO (Thermo Fisher Scientific), and point mutations were generated using PCR. All mutants were sequence verified. HEK293 Flp-In T-REx cells (Thermo Fisher Scientific, R78007) were cultured in Dulbecco’s modified Eagle’s medium (Gibco) supplemented with 10% FBS (Gibco) at 37 °C in a humidified 5% CO2 atmosphere. Approximately 0.3 µg of pOG44 and 1 µg of targeting construct plasmids were mixed in 250 µl of OptiMEM (Thermo Fisher Scientific, 51985-026). A total of 3 µl (3 µg) Lipofectamine3000 transfection reagent was then added to the DNA mix and incubated at room temperature for 20 min, and the whole mixture was added to the cells. Cells were exposed to 100 µg ml^−^1 hygromycin B (Invitrogen) and 10 µg ml^−^1 blasticidin for 3–4 weeks until the appearance of resistant colonies. Colonies were expanded into T75 flasks and induced with doxycycline (Sigma-Aldrich, D9891) at a concentration of 1–5 µg ml^−^1 for 48 h. Cells were collected, and total RNA was extracted followed by cDNA amplification and sequencing of Sec61 with gene-specific PCR primers to confirm. Cells were then used for the luciferase reporter assays as above.
as §3

WT Sec61α = biological target: T2, WT Sec61α (Canis lupus familiaris, UniProt P38377); assay: GLuc secretion reporter fused to full-length IL-2 or TNF, cells stably expressing WT Sec61α; type: cell-based, canine; settings: replicate columns
T2 construct: expressed in transfected cells

[4] = HEK-293T, 24 h, VCAM signal peptide, read-out: secreted luciferase activity (% of no-drug control)
[5] = HEK-293T, 24 h, pPL signal peptide, read-out: secreted luciferase activity (% of no-drug control)

Chain of Sec61α N300A (P60468 whole entry, the tested form may be a part): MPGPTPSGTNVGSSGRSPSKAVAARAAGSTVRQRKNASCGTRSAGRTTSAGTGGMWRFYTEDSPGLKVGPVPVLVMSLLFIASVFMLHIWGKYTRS
Chain of Sec61α N300A (P60059 whole entry, further chain, the tested form may be a part): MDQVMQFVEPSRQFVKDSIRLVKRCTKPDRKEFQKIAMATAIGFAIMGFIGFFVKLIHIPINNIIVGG
Chain of Sec61α N300A (P38377 whole entry N300A, the tested form may be a part): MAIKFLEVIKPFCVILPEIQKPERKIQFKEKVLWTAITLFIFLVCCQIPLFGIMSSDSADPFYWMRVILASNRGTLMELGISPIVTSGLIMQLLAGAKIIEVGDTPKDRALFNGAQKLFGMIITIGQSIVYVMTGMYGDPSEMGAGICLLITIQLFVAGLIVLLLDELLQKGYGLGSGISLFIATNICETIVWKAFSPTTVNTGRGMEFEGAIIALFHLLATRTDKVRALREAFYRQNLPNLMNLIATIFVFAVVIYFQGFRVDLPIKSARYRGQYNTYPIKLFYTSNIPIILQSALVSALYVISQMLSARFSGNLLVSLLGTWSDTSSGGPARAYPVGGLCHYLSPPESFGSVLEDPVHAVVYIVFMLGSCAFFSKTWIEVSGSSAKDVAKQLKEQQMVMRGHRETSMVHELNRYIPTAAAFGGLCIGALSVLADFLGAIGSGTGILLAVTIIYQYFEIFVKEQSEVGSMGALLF
T2 sequence (P60468 whole entry, the tested form may be a part): as the sequence (P60468 whole entry, the tested form may be a part) above
T2 sequence (P38377 whole entry, the tested form may be a part): as the sequence (P38377 whole entry N300A, the tested form may be a part) above, with A300N counted along it
T2 sequence (P60059 whole entry, further chain, the tested form may be a part): as the sequence (P60059 whole entry, further chain, the tested form may be a part) above
T1 sequence (P61619 whole entry): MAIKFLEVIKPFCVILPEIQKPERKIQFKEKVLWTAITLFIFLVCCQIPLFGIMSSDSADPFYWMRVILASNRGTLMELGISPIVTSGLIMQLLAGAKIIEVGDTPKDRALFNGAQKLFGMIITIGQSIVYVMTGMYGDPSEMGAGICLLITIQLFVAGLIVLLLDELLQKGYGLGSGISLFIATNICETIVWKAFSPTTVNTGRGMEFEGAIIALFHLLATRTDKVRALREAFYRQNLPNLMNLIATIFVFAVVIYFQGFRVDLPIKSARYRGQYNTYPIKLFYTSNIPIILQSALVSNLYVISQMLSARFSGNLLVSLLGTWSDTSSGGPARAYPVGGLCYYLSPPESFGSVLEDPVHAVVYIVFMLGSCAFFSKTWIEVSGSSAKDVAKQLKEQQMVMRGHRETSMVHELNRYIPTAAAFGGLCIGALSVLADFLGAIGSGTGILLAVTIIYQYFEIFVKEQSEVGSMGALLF
T1 sequence (P60059 whole entry, further chain): as the sequence (P60059 whole entry, further chain, the tested form may be a part) above
T1 sequence (P60468 whole entry, further chain): as the sequence (P60468 whole entry, the tested form may be a part) above
Chain of Wild Type Sec61α (P38377 whole entry): as the sequence (P38377 whole entry N300A, the tested form may be a part) above, with A300N counted along it
Chain of Wild Type Sec61α (P60468 whole entry, further chain): as the sequence (P60468 whole entry, the tested form may be a part) above
Chain of Wild Type Sec61α (P60059 whole entry, further chain): as the sequence (P60059 whole entry, further chain, the tested form may be a part) above

## CC(C)CC1NC(=O)C(Cc2cn(Cc3ccc(Br)cc3)c3ccccc23)N(C)C(=O)C(CC(F)(F)F)NC(=O)C(CC(C)C)N(C)C(=O)C(CC(F)(F)F)NC(=O)C(CCC#N)OC(=O)C(C)N(C)C1=O (stereo not drawn) [KZR-8445] (cyclo([X1]L[NMeA][X2][ξAla(CF3)][NMeL][ξAla(CF3)]); configuration not given here)
Sec61; HEK293T, 24 h
  potency against VCAM-GLuc relative to pPL-GLuc: 20 fold
Sec61; [4]
  remaining activity at 0.000660151 µM: 84%
  remaining activity at 0.00050805 µM: 92.6%
Sec61; [5]
  remaining activity at 0.000660151 µM: 93.6%
  remaining activity at 0.00050805 µM: 97.9%
Sec61; HEK-293T, 24 h, pPL signal peptide, Drug nM (log10) 4, read-out: secreted luciferase activity (% of no-drug control)
  remaining activity at 0.004 µM: 14%
Sec61; read-out: IC50, prolactin signal peptide in SP-GLuc secretion assay
  IC50: ~1000 nM
[1]
  dexamethasone resistance in T-ALL cells: overcome dexamethasone resistance
[2]; 0.32 nM
  Sec61 R66I - CTG (TNFa(FL)): 108 and 113 and 120
[2]; 1.6 nM
  Sec61 R66I - CTG (TNFa(FL)): 101 and 108 and 112
[2]; 8 nM
  Sec61 R66I - CTG (TNFa(FL)): 103 and 106 and 110
[2]; 40 nM
  Sec61 R66I - CTG (TNFa(FL)): 99 and 111 and 119
[2]; 200 nM
  Sec61 R66I - CTG (TNFa(FL)): 106 and 110 and 120
[2]; 1000 nM
  Sec61 R66I - CTG (TNFa(FL)): 112 (2×) and 113
[2]; 5000 nM
  Sec61 R66I - CTG (TNFa(FL)): 102 and 107 and 104
[2]; 25000 nM
  Sec61 R66I - CTG (TNFa(FL)): 101 and 94 and 102
Wild Type Sec61α; Drug nM (log10) 0.18303
  remaining activity at 0.00018303 µM: 85.5%
Wild Type Sec61α; Drug nM (log10) 0.660151
  remaining activity at 0.000660151 µM: 69.5%
Wild Type Sec61α; Drug nM (log10) 1.13727
  remaining activity at 0.00113727 µM: 51.6%
Wild Type Sec61α; Drug nM (log10) 1.61439
  remaining activity: 27.8%
Wild Type Sec61α; Drug nM (log10) 2.09151
  remaining activity: 11.4%
Wild Type Sec61α; Drug nM (log10) 2.56864
  remaining activity: 4.55%
Wild Type Sec61α; Drug nM (log10) 3.04576
  remaining activity: 2.42%
Wild Type Sec61α; Drug nM (log10) 3.52288
  remaining activity: 1.93%
Wild Type Sec61α; Drug nM (log10) 4
  remaining activity at 0.004 µM: 2.26%
Wild Type Sec61α; Drug nM (log10) -0.29409
  remaining activity at 0.00050805 µM: 91.1%
[3]; 0.32 nM
  Sec61 WT - CTG (TNFa(FL)): 111 and 110 and 116
[3]; 1.6 nM
  Sec61 WT - CTG (TNFa(FL)): 106 and 113 and 116
[3]; 8 nM
  Sec61 WT - CTG (TNFa(FL)): 110 and 111 and 115
[3]; 40 nM
  Sec61 WT - CTG (TNFa(FL)): 112 and 121 and 115
[3]; 200 nM
  Sec61 WT - CTG (TNFa(FL)): 108 and 114 and 116
[3]; 1000 nM
  Sec61 WT - CTG (TNFa(FL)): 105 and 108 and 113
[3]; 5000 nM
  Sec61 WT - CTG (TNFa(FL)): 95 and 105 (2×)
[3]; 25000 nM
  Sec61 WT - CTG (TNFa(FL)): 92 and 89 (2×)
Sec61α N300A; HEK293, 24 h, read-out: luciferase reporter activity (% of no-drug control), N300A, Drug nM (log10) 0.18303
  remaining activity at 0.00018303 µM: 95.9%
Sec61α N300A; HEK293, 24 h, read-out: luciferase reporter activity (% of no-drug control), N300A, Drug nM (log10) 0.660151
  remaining activity at 0.000660151 µM: 88.9%
Sec61α N300A; HEK293, 24 h, read-out: luciferase reporter activity (% of no-drug control), N300A, Drug nM (log10) 1.13727
  remaining activity at 0.00113727 µM: 80.9%
Sec61α N300A; HEK293, 24 h, read-out: luciferase reporter activity (% of no-drug control), N300A, Drug nM (log10) 1.61439
  remaining activity: 74.8%
Sec61α N300A; HEK293, 24 h, read-out: luciferase reporter activity (% of no-drug control), N300A, Drug nM (log10) 2.09151
  remaining activity: 69.1%
Sec61α N300A; HEK293, 24 h, read-out: luciferase reporter activity (% of no-drug control), N300A, Drug nM (log10) 2.56864
  remaining activity: 69.9%
Sec61α N300A; HEK293, 24 h, read-out: luciferase reporter activity (% of no-drug control), N300A, Drug nM (log10) 3.04576
  remaining activity: 64%
Sec61α N300A; HEK293, 24 h, read-out: luciferase reporter activity (% of no-drug control), N300A, Drug nM (log10) 3.52288
  remaining activity: 62%
Sec61α N300A; HEK293, 24 h, read-out: luciferase reporter activity (% of no-drug control), N300A, Drug nM (log10) 4
  remaining activity at 0.004 µM: 67.2%
Sec61α N300A; HEK293, 24 h, read-out: luciferase reporter activity (% of no-drug control), N300A, Drug nM (log10) -0.29409
  remaining activity at 0.000508 µM: 96.5%
Sec61α N300A; HEK293 cells
  effect of N300A Sec61α expression on sensitivity in secreted GLuc assay: conferred resistance
WT Sec61α; 0.32 nM
  Sec61 WT - Hu IL2(FL): 112 and 115 and 119
  Sec61 WT - Hu PD1(ss): 120 and 121 and 116
  Sec61 WT - Hu TNFa(FL): 132 and 105 and 123
WT Sec61α; 1.6 nM
  Sec61 WT - Hu IL2(FL): 108 and 112 and 116
  Sec61 WT - Hu PD1(ss): 107 and 115 and 113
  Sec61 WT - Hu TNFa(FL): 119 and 96 and 85
